# Read-outs that look alike come from different tables or passages of the source.
# Experiments:
# Format in all cases: binding
# [1] = biological target: T1, HeLa cell extract proteins (Homo sapiens, UniProt P36776); conditions: protein LONP1; HeLa
# T1 construct: endogenous in cells; host or cells: HeLa cell extract
# T1 sequence (P36776 68-959): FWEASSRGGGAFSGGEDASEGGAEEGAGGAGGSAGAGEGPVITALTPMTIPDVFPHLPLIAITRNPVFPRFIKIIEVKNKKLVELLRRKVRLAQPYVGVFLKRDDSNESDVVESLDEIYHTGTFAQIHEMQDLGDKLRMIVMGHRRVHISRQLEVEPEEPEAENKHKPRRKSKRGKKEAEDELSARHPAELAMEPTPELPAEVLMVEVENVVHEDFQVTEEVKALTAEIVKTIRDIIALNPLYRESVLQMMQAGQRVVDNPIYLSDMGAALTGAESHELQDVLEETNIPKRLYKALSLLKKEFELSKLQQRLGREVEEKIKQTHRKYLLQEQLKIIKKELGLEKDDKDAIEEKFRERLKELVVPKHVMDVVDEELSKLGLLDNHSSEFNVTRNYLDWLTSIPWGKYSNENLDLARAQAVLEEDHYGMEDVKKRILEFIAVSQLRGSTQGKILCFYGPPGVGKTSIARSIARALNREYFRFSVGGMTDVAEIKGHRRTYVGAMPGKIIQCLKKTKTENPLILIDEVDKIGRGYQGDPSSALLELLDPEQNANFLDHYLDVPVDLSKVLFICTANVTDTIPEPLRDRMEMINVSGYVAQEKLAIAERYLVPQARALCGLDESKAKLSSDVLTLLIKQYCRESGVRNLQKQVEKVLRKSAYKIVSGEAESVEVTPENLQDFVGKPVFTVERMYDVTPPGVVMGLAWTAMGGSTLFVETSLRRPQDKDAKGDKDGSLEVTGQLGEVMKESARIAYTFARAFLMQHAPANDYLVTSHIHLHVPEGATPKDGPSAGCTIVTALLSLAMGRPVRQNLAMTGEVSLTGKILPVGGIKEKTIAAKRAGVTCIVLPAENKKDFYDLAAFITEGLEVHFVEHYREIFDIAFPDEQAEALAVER
# [2] = biological target: T2, HeLa cell extract proteins (Homo sapiens, UniProt O00505)
# T2 construct: endogenous in cells; host or cells: HeLa cell extract
# T2 sequence (O00505 1-521): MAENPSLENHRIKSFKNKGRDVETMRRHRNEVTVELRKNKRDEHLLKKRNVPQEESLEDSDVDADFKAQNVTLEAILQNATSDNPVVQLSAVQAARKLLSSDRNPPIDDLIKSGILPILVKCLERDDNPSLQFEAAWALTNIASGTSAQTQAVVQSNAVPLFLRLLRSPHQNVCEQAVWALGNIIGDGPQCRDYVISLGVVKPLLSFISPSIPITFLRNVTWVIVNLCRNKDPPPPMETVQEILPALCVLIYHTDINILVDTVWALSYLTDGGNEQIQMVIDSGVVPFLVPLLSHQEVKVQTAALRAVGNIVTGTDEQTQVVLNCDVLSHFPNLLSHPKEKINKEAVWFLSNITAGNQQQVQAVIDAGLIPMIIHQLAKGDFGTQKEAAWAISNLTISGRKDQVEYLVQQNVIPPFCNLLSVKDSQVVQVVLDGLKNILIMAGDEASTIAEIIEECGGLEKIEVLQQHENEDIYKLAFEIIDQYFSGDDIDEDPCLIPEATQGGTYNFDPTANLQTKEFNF
# [3] = biological target: T3, HeLa cell extract proteins (Homo sapiens, UniProt Q6R327)
# T3 construct: endogenous in cells; host or cells: HeLa cell extract
# [4] = biological target: T4, HeLa cell extract proteins (Homo sapiens, UniProt Q9H9T3)
# T4 construct: endogenous in cells; host or cells: HeLa cell extract
# T4 sequence (Q9H9T3 1-547): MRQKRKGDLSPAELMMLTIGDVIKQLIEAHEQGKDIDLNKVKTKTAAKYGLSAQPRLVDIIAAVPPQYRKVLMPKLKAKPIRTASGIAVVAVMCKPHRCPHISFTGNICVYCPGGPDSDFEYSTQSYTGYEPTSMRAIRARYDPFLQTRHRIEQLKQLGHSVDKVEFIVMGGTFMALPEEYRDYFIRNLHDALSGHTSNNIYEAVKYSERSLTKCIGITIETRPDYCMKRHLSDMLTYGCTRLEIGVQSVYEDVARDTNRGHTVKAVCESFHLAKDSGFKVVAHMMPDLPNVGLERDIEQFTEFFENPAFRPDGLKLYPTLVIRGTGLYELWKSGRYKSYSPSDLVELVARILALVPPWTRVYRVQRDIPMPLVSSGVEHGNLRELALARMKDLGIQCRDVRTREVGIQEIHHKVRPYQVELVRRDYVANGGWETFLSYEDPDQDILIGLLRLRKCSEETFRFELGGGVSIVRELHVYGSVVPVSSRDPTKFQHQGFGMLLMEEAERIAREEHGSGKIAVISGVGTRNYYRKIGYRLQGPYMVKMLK
# [5] = biological target: T5, HeLa cell extract proteins (Homo sapiens, UniProt P52298)
# T5 construct: endogenous in cells; host or cells: HeLa cell extract
# T5 sequence (P52298 1-156): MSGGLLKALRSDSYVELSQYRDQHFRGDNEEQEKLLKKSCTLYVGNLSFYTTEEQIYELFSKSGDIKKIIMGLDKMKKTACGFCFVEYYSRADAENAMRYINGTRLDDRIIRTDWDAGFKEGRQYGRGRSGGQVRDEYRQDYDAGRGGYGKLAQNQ
# [6] = biological target: T6, HeLa cell extract proteins (Homo sapiens, UniProt Q16543)
# T6 construct: endogenous in cells; host or cells: HeLa cell extract
# T6 sequence (Q16543 1-378): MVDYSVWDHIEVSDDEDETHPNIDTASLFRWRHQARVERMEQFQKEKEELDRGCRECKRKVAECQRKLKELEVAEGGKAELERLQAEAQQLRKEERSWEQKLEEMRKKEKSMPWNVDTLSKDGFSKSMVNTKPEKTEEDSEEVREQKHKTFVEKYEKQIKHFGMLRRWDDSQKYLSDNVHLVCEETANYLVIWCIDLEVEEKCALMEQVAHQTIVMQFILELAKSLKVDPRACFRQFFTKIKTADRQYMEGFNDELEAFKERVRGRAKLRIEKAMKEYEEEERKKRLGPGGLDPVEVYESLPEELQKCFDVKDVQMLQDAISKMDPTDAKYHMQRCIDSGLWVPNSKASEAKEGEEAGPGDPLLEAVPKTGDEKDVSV
# [7] = biological target: T7, HeLa cell extract proteins (Homo sapiens, UniProt P13727)
# T7 construct: endogenous in cells; host or cells: HeLa cell extract
# T7 sequence (P13727 106-222): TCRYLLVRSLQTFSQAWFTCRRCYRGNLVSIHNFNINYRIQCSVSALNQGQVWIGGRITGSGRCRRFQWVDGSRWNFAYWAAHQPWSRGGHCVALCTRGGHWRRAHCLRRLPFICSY
# [8] = HeLa, protein NCBP2 (NUCLEAR CAP-BINDING PROTEIN SUBUNIT 2)
# T3 sequence (Q6R327 whole entry): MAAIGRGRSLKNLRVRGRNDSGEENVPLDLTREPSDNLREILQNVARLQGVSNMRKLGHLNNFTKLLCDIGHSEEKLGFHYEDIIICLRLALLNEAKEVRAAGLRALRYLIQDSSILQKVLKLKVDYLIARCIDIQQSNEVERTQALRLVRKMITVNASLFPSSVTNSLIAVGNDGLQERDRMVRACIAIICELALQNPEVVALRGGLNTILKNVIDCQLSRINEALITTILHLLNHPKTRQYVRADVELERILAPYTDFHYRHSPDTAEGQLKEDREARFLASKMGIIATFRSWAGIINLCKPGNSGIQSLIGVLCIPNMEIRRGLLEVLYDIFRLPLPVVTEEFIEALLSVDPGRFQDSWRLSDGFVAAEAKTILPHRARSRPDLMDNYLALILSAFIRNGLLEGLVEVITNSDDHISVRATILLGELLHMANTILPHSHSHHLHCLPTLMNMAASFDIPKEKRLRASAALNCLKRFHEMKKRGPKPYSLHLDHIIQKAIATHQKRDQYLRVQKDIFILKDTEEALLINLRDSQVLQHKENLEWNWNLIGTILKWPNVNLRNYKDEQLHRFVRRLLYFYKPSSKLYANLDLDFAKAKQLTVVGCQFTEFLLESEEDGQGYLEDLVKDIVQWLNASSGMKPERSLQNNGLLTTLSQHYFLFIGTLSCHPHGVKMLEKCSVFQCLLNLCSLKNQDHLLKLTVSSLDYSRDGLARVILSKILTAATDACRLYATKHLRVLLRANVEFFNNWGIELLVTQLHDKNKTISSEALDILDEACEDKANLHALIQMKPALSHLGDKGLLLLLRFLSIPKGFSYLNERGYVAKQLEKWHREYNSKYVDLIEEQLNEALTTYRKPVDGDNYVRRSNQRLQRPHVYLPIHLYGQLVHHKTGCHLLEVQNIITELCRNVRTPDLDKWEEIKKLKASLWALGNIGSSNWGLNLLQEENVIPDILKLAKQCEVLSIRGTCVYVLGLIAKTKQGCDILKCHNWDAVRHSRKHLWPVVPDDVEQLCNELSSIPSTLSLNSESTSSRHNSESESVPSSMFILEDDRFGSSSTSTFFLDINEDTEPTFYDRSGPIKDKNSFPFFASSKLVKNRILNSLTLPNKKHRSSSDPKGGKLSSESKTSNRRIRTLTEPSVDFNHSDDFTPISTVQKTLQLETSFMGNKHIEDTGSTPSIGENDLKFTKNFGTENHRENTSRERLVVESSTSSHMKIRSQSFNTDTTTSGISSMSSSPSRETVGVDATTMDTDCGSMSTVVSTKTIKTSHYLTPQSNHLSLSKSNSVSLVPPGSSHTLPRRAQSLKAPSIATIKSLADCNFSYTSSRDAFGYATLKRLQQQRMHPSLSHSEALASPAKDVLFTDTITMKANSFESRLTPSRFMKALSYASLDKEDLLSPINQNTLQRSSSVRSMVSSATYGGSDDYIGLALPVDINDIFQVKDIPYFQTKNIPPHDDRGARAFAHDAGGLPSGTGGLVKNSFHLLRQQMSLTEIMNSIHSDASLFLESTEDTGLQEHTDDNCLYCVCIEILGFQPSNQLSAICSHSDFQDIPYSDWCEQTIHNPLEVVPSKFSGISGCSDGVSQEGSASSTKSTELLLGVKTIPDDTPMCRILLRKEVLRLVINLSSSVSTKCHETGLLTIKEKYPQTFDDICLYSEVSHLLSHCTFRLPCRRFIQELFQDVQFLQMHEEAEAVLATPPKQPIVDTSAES
SMILES,fold changes relative to vehicle control [1],"fold changes relative to vehicle control ([2]; HeLa, captured protein KPNA3)","fold changes relative to vehicle control ([3]; HeLa, protein RICTOR)","fold changes relative to vehicle control ([4]; protein ELP3, HeLa)","fold changes relative to vehicle control [5, 8]","fold changes relative to vehicle control ([6]; protein CDC37, HeLa)","fold changes relative to vehicle control ([7]; HeLa, captured protein PRG2)",further results
Nc1nc2cccc(-c3ccccc3)c2n1Cc1ccc(Cl)c(Cl)c1 [compound 3],1.16,–,–,–,–,–,–,–
CCCCCCOc1ccc(Cc2cnc(N)nc2N)cc1 [compound 1],0.86,–,–,–,–,–,–,–
NCCCNc1ccc(C(=O)NC(CCC(=O)O)C(=O)O)cc1 (stereo not drawn) [compound 7],–,0.87,1.11,0.9,0.95,1.14,1.01,–
CCCCCCOc1cccc(Cc2cnc(N)nc2N)c1 [compound 2],1.41,–,–,–,–,–,–,–
NCCOCCOCC(=O)Nc1nc2ncc(CNc3ccc(C(=O)NC(CCC(=O)O)C(=O)O)cc3)nc2c(=O)[nH]1 (stereo not drawn) [compound 6],–,1.02,1.11,0.91,0.91,1.21,0.77,–
"Nc1nc2[nH]cc(CCc3ccc(C(=O)N[C@@H](CCC(=O)O)C(=O)O)cc3)c2c(=O)[nH]1 [PTX, pemetrexed]",–,–,–,–,–,–,–,fold changes relative to vehicle control [2]: 0.9; fold changes relative to vehicle control [3]: 0.97; fold changes relative to vehicle control [4]: 0.72; fold changes relative to vehicle control [5]: 0.91; fold changes relative to vehicle control [6]: 1.1; fold changes relative to vehicle control [7]: 0.86
"Nc1nc2c(c(=O)[nH]1)N(C=O)C(CNc1ccc(C(=O)N[C@@H](CCC(=O)O)C(=O)O)cc1)CN2 (stereo partly drawn) [LEU, leucovorin]",–,0.9,0.92,0.88,1.05,1.13,0.92,–

# From article PMC6199744, “Development of Chemical Proteomics for the Folateome and Analysis of the Kinetoplastid Folateome” (ACS Infectious Diseases, 2018)
